Test results as given in ChEMBL document CHEMBL3507680, “University of Dundee, Gates Library screen for HepG2 cell viability”.

Experiment: Human HepG2 cell viability assay in 384 well format
Assay type: toxicity, cell-based
Set-up: dose 125 nL, time 70.5 hour; cytotoxicity at 70.5 h: concentration not given beside the values
Conditions: HepG2 cells, read-out: Inhibition

SMILES | cytotoxicity at 70.5 h
Cc1ccc(CN2CC3(CCN(C(=O)C4CC4)CC3)CC2C(=O)O)o1 (stereo unspecified) | -2.54%
CN(C)c1nc2c(c(=O)[nH]1)CCN(C(=O)C1CCCO1)C2 (stereo unspecified) | -8.42%
O=C(Nc1ccc(-n2cccn2)cc1)N1C[C@H](O)[C@@H](N2CCOCC2)C1 | -13.4%
CC(=O)Nc1ccc(CN2CCc3[nH]cnc3C2c2ccc(C)o2)cc1 (stereo unspecified) | -6.39%
CCN1CCC2(CC1)c1nc[nH]c1CCN2S(C)(=O)=O | -6.08%
COCCN(C)CCN1CC2(CCN(C3CCCCC3)CC2)OC1=O | -4.75%
CNCc1n[nH]c(=O)n1CC1CCCCC1 | -5.1%
Cc1nc(CN(C)Cc2cn[nH]c2-c2ccc(F)cc2)c[nH]1 | 5.97%
CC(NCc1cn(CCC(N)=O)c2ccccc12)c1nncn1C (stereo unspecified) | 23.7%
CCNc1ncc(C(=O)NC2CCOCC2)cn1 | -5.98%
Cc1nc(C)c(-c2ccn(CC(=O)Nc3cnn(C)n3)n2)s1 | 8.07%
CSc1ccccc1C(=O)N1C[C@H]2CC[C@@H]1CN(C(=O)N(C)C)C2 | -8.08%
CC(C)[C@]1(O)CN(C(=O)CNC(N)=O)C[C@H]1C | -0.763%
CC(=O)NCC(=O)N(CCN1CCOCC1)Cc1ccco1 | 3.23%
Cc1noc(C)c1C(=O)N(Cc1ccsc1)CC1CCCO1 (stereo unspecified) | 3.1%
Cc1nc2c(c(NCc3cnc4c(c3)CCC4)n1)CNC2 | -6.06%
CCN1CC2(CCC1=O)CCN(C(=O)C(O)c1cccc(Cl)c1)CC2 (stereo unspecified) | -7.18%
CN1Cc2nnc(C3CCOCC3)n2C(Cc2c[nH]cn2)C1 (stereo unspecified) | -1.52%
OC1CCN(CCCNc2ncccn2)CC1 | 3.78%

SMILES | cytotoxicity at 70.5 h
O=C(O)C1c2nc[nH]c2CCN1Cc1ccc(-c2ccccc2)s1 (stereo unspecified) | -4.04%
CN(Cc1ccc2nonc2c1)C(=O)c1ccc(C2CCCO2)s1 (stereo unspecified) | -4.66%
COCc1nc(CNC2CSCCSC2)no1 | -11.5%
CCn1ncnc1CN(CCOC)Cc1ccc(C)cc1 | -4.05%
Cn1nccc1C(=O)N1CCCN(CCCc2ccccc2)CC1 | -0.514%
CCc1ccc(C(=O)N2CCC(O)(CN3CCOCC3)C(C)(C)C2)[nH]1 (stereo unspecified) | -9.84%
CNCCNc1nccc(-c2cn(C)nc2C)n1 | -5.66%
Cc1cccc(CNC(=O)NCC2CCN(Cc3ncc[nH]3)C2)c1 (stereo unspecified) | -16.7%
Cc1nnsc1CN1C[C@H]2CC[C@@H]1CN(Cc1ccccc1)C2 | -1.08%
CSCc1noc(Cn2ncn3cccc3c2=O)n1 | -3.25%
O=S(=O)(Cc1ccccc1CN1CCOCC(O)C1)c1ccccc1 (stereo unspecified) | 14.8%
Cc1ccc(OC2(C(=O)N(C)Cc3ccoc3)CCNCC2)cc1 | -16.8%
CCCc1cnc(C)nc1N1CCC2(CCCO2)CC1 | -1.28%
CCc1nc(N2CCCC(CCCOC)C2)c2cnn(C)c2n1 (stereo unspecified) | -5.41%
COCc1nc(Cn2ncn3cccc3c2=O)no1 | -0.912%
CCN1CC(C(=O)N2CCN(CCn3cccc3)CC2)CCC1=O (stereo unspecified) | 1.29%
Fc1cccc(C2(CNC3CCSC3)CCOCC2)c1 (stereo unspecified) | 13.3%
CCc1nc(C)c(C2CC(=O)Nc3c2c(-c2ccccn2)nn3C)[nH]1 (stereo unspecified) | 1.83%
COc1cccc2c1OCCCN(c1nc(N)nc3c1CCNC3)C2 | 12.6%

SMILES | cytotoxicity at 70.5 h
CCOCC(=O)N1CCC(C2CCN(Cc3ccc(Cl)cc3)C2)CC1 (stereo unspecified) | -2.4%
COc1nc(C)c(C(=O)N2CCN(c3ncccc3C)CC2)s1 | -4.24%
CN(Cc1ccc2c(c1)OCO2)C(=O)c1ccc(C2CCCNC2)cc1 (stereo unspecified) | -6.12%
NC(=O)CN1CCCC(C(=O)N2CCC(O)(Cc3ccccc3)CC2)C1 (stereo unspecified) | -9.61%
CCc1ccc2nc(C)cc(C(=O)NC3CCCCNC3=O)c2c1 (stereo unspecified) | 1.7%
CC(=O)N1CCCC(C(=O)NCCc2csc(-c3ccncc3)n2)C1 (stereo unspecified) | -5.2%
O=C(c1scc2c1OCCO2)N1CCC(Cc2cccc(CO)c2)C1 (stereo unspecified) | -3.37%
Cc1nc[nH]c1CN1CCCC(CNC(=O)c2ccncn2)C1 (stereo unspecified) | -7.41%
Cc1nc(C)c(CC(=O)N2C[C@@H]3CC[C@H](C2)N(CC2CC2)C3)s1 | -3.8%
CCCS(=O)(=O)NCc1cccnc1Oc1ccc(C)nc1 | -0.632%
O=C(O)C1(Cc2ccc(F)cc2F)CCCN(Cc2ccccn2)C1 (stereo unspecified) | -5.82%
O=C1NCCCC[C@@H]1NC(=O)C1(N2CCCCC2)Cc2ccccc2C1 | -4.27%
O=C(NCc1nnnn1-c1ccccc1)c1ccc(C2CCCO2)s1 (stereo unspecified) | -4.49%
NC(=O)C1CCCN(c2ncnc3c2Cc2ccccc2OC3)C1 (stereo unspecified) | 19%
C[C@@H]1CN(c2ccc(Cl)cn2)CC[C@@]1(O)C1CCOCC1 | -1.93%
CN1CC2(CCN(C(=O)c3[nH]cnc3-c3ccccc3)C2)OC1=O (stereo unspecified) | -3.76%
O=C(Cc1cc(F)cc(Cl)c1)N[C@@H]1CCNC[C@H]1O | -5.4%
CCNc1ncc(C(=O)N(C)Cc2nc3cc(Cl)ccc3[nH]2)cn1 | -13.7%
